According to PubChem BioAssay (NCI):
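Cells were grown in 96-well plates and exposed to each compound for 48 hours at five concentrations; endpoints were interpolated linearly between bracketing concentrations, or set to the highest concentration if not reached. Definition used: TGI = concentration required for complete inhibition of growth.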

What was measured:
Test in all cases: NCI-60 cell line screen, 48 h
DMS 273 small cell lung = tested on: DMS 273 small cell lung
UO-31 renal = tested on: UO-31 renal
A549 NSCLC = tested on: A549 NSCLC
SNB-78 CNS = tested on: SNB-78 CNS
UACC-62 melanoma = tested on: UACC-62 melanoma
RPMI-8226 leukemia = tested on: RPMI-8226 leukemia
MDA-MB-231 breast = tested on: MDA-MB-231 breast
OVCAR-8 ovarian = tested on: OVCAR-8 ovarian
OVCAR-3 ovarian = tested on: OVCAR-3 ovarian
NCI-H23 lung = tested on: NCI-H23 lung
NCI-H460 lung = tested on: NCI-H460 lung
HCT-116 colon = tested on: HCT-116 colon
CCRF-CEM leukemia = tested on: CCRF-CEM leukemia
DMS 114 small cell lung = tested on: DMS 114 small cell lung
ACHN renal = tested on: ACHN renal
UACC-257 melanoma = tested on: UACC-257 melanoma
MOLT-4 leukemia = tested on: MOLT-4 leukemia
HL-60(TB) leukemia = tested on: HL-60(TB) leukemia
RXF 393 renal = tested on: RXF 393 renal
NCI/ADR-RES ovarian = tested on: NCI/ADR-RES ovarian
BT-549 breast = tested on: BT-549 breast
SK-MEL-2 melanoma = tested on: SK-MEL-2 melanoma
U251 CNS = tested on: U251 CNS
T-47D breast = tested on: T-47D breast
HOP-62 NSCLC = tested on: HOP-62 NSCLC
SK-MEL-5 melanoma = tested on: SK-MEL-5 melanoma
MDA-MB-435 = tested on: MDA-MB-435
SF-295 CNS = tested on: SF-295 CNS
KM12 colon = tested on: KM12 colon
SNB-75 CNS = tested on: SNB-75 CNS
LXFL 529 NSCLC = tested on: LXFL 529 NSCLC
SK-MEL-28 melanoma = tested on: SK-MEL-28 melanoma
M14 melanoma = tested on: M14 melanoma
M19-MEL melanoma = tested on: M19-MEL melanoma
786-0 renal = tested on: 786-0 renal
HT29 colon = tested on: HT29 colon
SNB-19 CNS = tested on: SNB-19 CNS
A498 renal = tested on: A498 renal
SR leukemia = tested on: SR leukemia
SN12C renal = tested on: SN12C renal
HOP-18 NSCLC = tested on: HOP-18 NSCLC
EKVX NSCLC = tested on: EKVX NSCLC
SF-268 CNS = tested on: SF-268 CNS
NCI-H226 lung = tested on: NCI-H226 lung
DLD-1 colon = tested on: DLD-1 colon
MALME-3M melanoma = tested on: MALME-3M melanoma
HCC-2998 colon = tested on: HCC-2998 colon
RXF-631 renal = tested on: RXF-631 renal
IGROV1 ovarian = tested on: IGROV1 ovarian
PC-3 prostate = tested on: PC-3 prostate
K-562 leukemia = tested on: K-562 leukemia
SF-539 CNS = tested on: SF-539 CNS
HS 578T breast = tested on: HS 578T breast
MDA-N = tested on: MDA-N
XF 498 CNS = tested on: XF 498 CNS
SK-OV-3 ovarian = tested on: SK-OV-3 ovarian
KM20L2 colon = tested on: KM20L2 colon
OVCAR-5 ovarian = tested on: OVCAR-5 ovarian
CAKI-1 renal = tested on: CAKI-1 renal
DU-145 prostate = tested on: DU-145 prostate
LOX IMVI melanoma = tested on: LOX IMVI melanoma
HCT-15 colon = tested on: HCT-15 colon
SW-620 colon = tested on: SW-620 colon
COLO 205 colon = tested on: COLO 205 colon
HOP-92 NSCLC = tested on: HOP-92 NSCLC
TK-10 renal = tested on: TK-10 renal
MCF7 breast = tested on: MCF7 breast
NCI-H522 lung = tested on: NCI-H522 lung
OVCAR-4 ovarian = tested on: OVCAR-4 ovarian
SN12K1 renal = tested on: SN12K1 renal

For `O=c1c2ccccc2n2nnc3ccc(NCCNCCO)c1c32`, the TGI (DMS 273 small cell lung) was 11.1 µM, the TGI (UO-31 renal) was 3.78 µM and the TGI (A549 NSCLC) was 3.5 µM. For the same compound, the TGI (SNB-78 CNS) was 27.6 µM, the TGI (UACC-62 melanoma) was 8.68 µM and the TGI (RPMI-8226 leukemia) was 13.7 µM. It also gave a TGI (MDA-MB-231 breast) of 8.18 µM, a TGI (OVCAR-8 ovarian) of 4.74 µM and a TGI (OVCAR-3 ovarian) of 5.81 µM. It also gave a TGI (NCI-H23 lung) of 8.85 µM, a TGI (NCI-H460 lung) of 2.83 µM and a TGI (HCT-116 colon) of 10.3 µM. For the same compound, the TGI (CCRF-CEM leukemia) was 14.9 µM, the TGI (DMS 114 small cell lung) was 13.4 µM and the TGI (ACHN renal) was 5.89 µM. The TGI (UACC-257 melanoma) was 12.3 µM, the TGI (MOLT-4 leukemia) was 9.64 µM and the TGI (HL-60(TB) leukemia) was 5.24 µM. It also gave a TGI (RXF 393 renal) of 7.24 µM, a TGI (NCI/ADR-RES ovarian) of 5.96 µM and a TGI (BT-549 breast) of 10.1 µM. It also gave a TGI (SK-MEL-2 melanoma) of 10.5 µM, a TGI (U251 CNS) of 6.73 µM and a TGI (T-47D breast) of 29.1 µM. It also gave a TGI (HOP-62 NSCLC) of 8.91 µM, a TGI (SK-MEL-5 melanoma) of 4.37 µM and a TGI (MDA-MB-435) of 10.8 µM. For the same compound, the TGI (SF-295 CNS) was 9.82 µM, the TGI (KM12 colon) was 7.44 µM and the TGI (SNB-75 CNS) was 7.54 µM. The TGI (LXFL 529 NSCLC) was 14.2 µM, the TGI (SK-MEL-28 melanoma) was 10.9 µM and the TGI (M14 melanoma) was 5.2 µM. It also gave a TGI (M19-MEL melanoma) of 8.61 µM, a TGI (786-0 renal) of 11.5 µM and a TGI (HT29 colon) of 6.49 µM. For the same compound, the TGI (SNB-19 CNS) was 17.7 µM, the TGI (A498 renal) was 5.52 µM and the TGI (SR leukemia) was 8.05 µM. The TGI (SN12C renal) was 13.1 µM, the TGI (HOP-18 NSCLC) was 8.67 µM and the TGI (EKVX NSCLC) was 8.87 µM. For the same compound, the TGI (SF-268 CNS) was 6.46 µM, the TGI (NCI-H226 lung) was 5.06 µM and the TGI (DLD-1 colon) was 15.4 µM. For the same compound, the TGI (MALME-3M melanoma) was 7.84 µM, the TGI (HCC-2998 colon) was 3.74 µM and the TGI (RXF-631 renal) was 9.36 µM. The TGI (IGROV1 ovarian) was 15.6 µM, the TGI (PC-3 prostate) was 4.89 µM and the TGI (K-562 leukemia) was 21.7 µM. The TGI (SF-539 CNS) was 14.6 µM, the TGI (HS 578T breast) was 6.36 µM and the TGI (MDA-N) was 10.3 µM. The TGI (XF 498 CNS) was 25.2 µM, the TGI (SK-OV-3 ovarian) was 16.5 µM and the TGI (KM20L2 colon) was 8.29 µM. The TGI (OVCAR-5 ovarian) was 7 µM, the TGI (CAKI-1 renal) was 10 µM and the TGI (DU-145 prostate) was 2.7 µM. The TGI (LOX IMVI melanoma) was 2.6 µM, the TGI (HCT-15 colon) was 9.42 µM and the TGI (SW-620 colon) was 6.44 µM. It also gave a TGI (COLO 205 colon) of 4.09 µM, a TGI (HOP-92 NSCLC) of 6.18 µM and a TGI (TK-10 renal) of 9.4 µM. The TGI (MCF7 breast) was 14.9 µM, the TGI (NCI-H522 lung) was 7.23 µM and the TGI (OVCAR-4 ovarian) was 6.34 µM.

With `Nc1ncnc2c1ncn2C1C(O)C=C(CO)C1O` (stereo unspecified) the TGI (DMS 273 small cell lung) was > 625 µM, the TGI (UO-31 renal) was > 625 µM and the TGI (A549 NSCLC) was > 625 µM. For the same compound, the TGI (SNB-78 CNS) was > 625 µM, the TGI (UACC-62 melanoma) was > 625 µM and the TGI (RPMI-8226 leukemia) was > 625 µM. The TGI (OVCAR-8 ovarian) was > 625 µM, the TGI (OVCAR-3 ovarian) was > 625 µM and the TGI (NCI-H460 lung) was > 625 µM. For the same compound, the TGI (HCT-116 colon) was > 625 µM, the TGI (DMS 114 small cell lung) was > 625 µM and the TGI (HL-60(TB) leukemia) was > 625 µM. For the same compound, the TGI (NCI/ADR-RES ovarian) was > 625 µM, the TGI (SK-MEL-2 melanoma) was > 625 µM and the TGI (HOP-62 NSCLC) was > 625 µM. For the same compound, the TGI (SK-MEL-5 melanoma) was > 625 µM, the TGI (SF-295 CNS) was > 625 µM and the TGI (KM12 colon) was > 625 µM. The TGI (SN12K1 renal) was > 625 µM, the TGI (M19-MEL melanoma) was > 625 µM and the TGI (HT29 colon) was > 625 µM. For the same compound, the TGI (SNB-19 CNS) was > 625 µM, the TGI (SN12C renal) was > 625 µM and the TGI (HOP-18 NSCLC) was > 625 µM. For the same compound, the TGI (SF-268 CNS) was > 625 µM, the TGI (NCI-H226 lung) was > 625 µM and the TGI (DLD-1 colon) was > 625 µM. For the same compound, the TGI (MALME-3M melanoma) was > 625 µM, the TGI (HCC-2998 colon) was > 625 µM and the TGI (IGROV1 ovarian) was > 625 µM. For the same compound, the TGI (SF-539 CNS) was > 625 µM, the TGI (XF 498 CNS) was < 0.0625 µM and the TGI (SK-OV-3 ovarian) was > 625 µM. The TGI (KM20L2 colon) was > 625 µM, the TGI (CAKI-1 renal) was > 625 µM and the TGI (LOX IMVI melanoma) was > 625 µM. For the same compound, the TGI (HCT-15 colon) was > 625 µM, the TGI (SW-620 colon) was > 625 µM and the TGI (COLO 205 colon) was > 625 µM. For the same compound, the TGI (HOP-92 NSCLC) was > 625 µM, the TGI (MCF7 breast) was > 625 µM and the TGI (OVCAR-4 ovarian) was > 625 µM.
